Test results taken from ChEMBL document CHEMBL5120893, “A Neuropeptide Y/F-like Polypeptide Derived from the Transcriptome of Turbinaria peltata Suppresses LPS-Induced Astrocytic Inflammation” (J Nat Prod, 2022).
Active and inactive are the calls of the source. No cut-off for these calls is given here. Residues, ends and D or L forms follow the SMILES beside them.

What was measured:
C8D1A = assay: Inhibition of NFkappaB p65 phosphorylation at […] in LPS-induced mouse C8D1A cells at 0.75 to 3 uM pretreated for 4 hrs followed by LPS stimulation measured after 24 hrs by Western blotting analysis; assay type: cell-based; settings: dose 0.75-3 µM
C8-D1A [1] = assay: Antiinflammatory activity against mouse C8D1A cells assessed as inhibition of LPS-induced NO production at 3 uM measured after 24 hrs in presence of Y1R antagonist BIIE-0246 by Griess method; assay type: functional, cell-based
C8-D1A [2] = assay: Antiinflammatory activity against mouse C8D1A cells assessed as inhibition of LPS-induced iNOS expression at 3 uM in presence of Y1R antagonist BIIE-0246 by Western blotting analysis; assay type: functional, cell-based
C8-D1A [3] = assay: Antiinflammatory activity against mouse C8D1A cells assessed as inhibition of LPS-induced IL-1beta production at 0.75 to 3 uM pretreated for 4 hrs followed by LPS stimulation measured after 24 hrs by ELISA; assay type: functional, cell-based; settings: dose 0.75-3 µM, time 28.0 hrs
C8-D1A [4] = assay: Antiinflammatory activity against mouse C8D1A cells assessed as inhibition of LPS-induced TNFalpha mRNA expression at 0.75 to 3 uM pretreated for 4 hrs followed by LPS stimulation measured after 24 hrs by real time PCR analysis; assay type: functional, cell-based; settings: dose 0.75-3 µM, time 28.0 hrs
C8-D1A [5] = assay: Antiinflammatory activity against mouse C8D1A cells assessed as inhibition of LPS-induced IL-1beta mRNA expression at 0.75 to 3 uM pretreated for 4 hrs followed by LPS stimulation measured after 24 hrs by real time PCR analysis; assay type: functional, cell-based; settings: dose 0.75-3 µM, time 28.0 hrs
C8-D1A [6] = assay: Antiinflammatory activity against mouse C8D1A cells assessed as inhibition of LPS-induced iNOS production by Western blotting analysis; assay type: functional, cell-based; settings: dose 0.75-3 µM, DDE = dose-dependent effect
C8-D1A [7] = assay: Antiinflammatory activity against mouse C8D1A cells assessed as inhibition of LPS-induced TNFalpha production at 0.75 to 3 uM pretreated for 4 hrs followed by LPS stimulation measured after 24 hrs by ELISA; assay type: functional, cell-based; settings: dose 0.75-3 µM, time 28.0 hrs
C8-D1A [8] = assay: Cytotoxicity against mouse C8D1A cells assessed as cell viability at 0.75 to 50 uM after 24 hrs by MTT assay; assay type: toxicity, cell-based; settings: dose 0.75-50 µM
C8-D1A [9] = assay: Antiinflammatory activity against mouse C8D1A cells assessed as inhibition of LPS-induced NO production measured after 24 hrs by Griess method; assay type: functional, cell-based; settings: dose 0.75-6 µM, DDE = dose-dependent effect
C8-D1A [10] = assay: Antiinflammatory activity against mouse C8D1A cells assessed as inhibition of LPS-induced IL-6 production at 0.75 to 3 uM pretreated for 4 hrs followed by LPS stimulation measured after 24 hrs by ELISA; assay type: functional, cell-based; settings: dose 0.75-3 µM, time 28.0 hrs
C8-D1A [11] = assay: Antiinflammatory activity against mouse C8D1A cells assessed as inhibition of LPS-induced GFAP production at 0.75 to 3 uM pretreated for 4 hrs followed by LPS stimulation measured after 24 hrs by DMI-8 microscopy; assay type: functional, cell-based; settings: dose 0.75-3 µM, time 28.0 hrs
C8-D1A [12] = assay: Antiinflammatory activity against mouse C8D1A cells assessed as inhibition of LPS-induced iNOS expression at 3 uM by Western blotting analysis; assay type: functional, cell-based
C8-D1A [13] = assay: Effect on LPS-induced inflammasome activation in mouse C8D1A cells assessed as reduction in caspase 1 protein level at 0.75 to 3 uM by Western blotting analysis; assay type: functional, cell-based; settings: dose 0.75-3 µM
C8-D1A [14] = assay: Antiinflammatory activity against mouse C8D1A cells assessed as inhibition of LPS-induced IL-6 mRNA expression at 0.75 to 3 uM pretreated for 4 hrs followed by LPS stimulation measured after 24 hrs by real time PCR analysis; assay type: functional, cell-based; settings: dose 0.75-3 µM, time 28.0 hrs
C8-D1A [15] = assay: Antiinflammatory activity against mouse C8D1A cells assessed as inhibition of LPS-induced NO production at 3 uM measured after 24 hrs by Griess method; assay type: functional, cell-based
C8-D1A [16] = assay: Inhibition of LPS-induced mouse C8D1A cell viability loss assessed as restoration of cell viability at 0.75 to 6 uM after 24 hrs by MTT assay; assay type: functional, cell-based; settings: dose 0.75-6 µM
[17] = target: Inhibitor of nuclear factor kappa-B kinase subunit alpha/beta (Mus musculus) (UniProt Q60680+O88351); assay: Inhibition of IKKalpha/beta phosphorylation at Ser176/180 in LPS-induced mouse C8D1A cells at 0.75 to 3 uM pretreated for 4 hrs followed by LPS stimulation measured after 24 hrs by Western blotting analysis; assay type: cell-based; settings: dose 0.75-3 µM
[18] = target: T1, Inhibitor of nuclear factor kappa-B kinase subunit beta (Mus musculus) (UniProt O88351); assay: Inhibition of IkappaBalpha phosphorylation at […] in LPS-induced mouse C8D1A cells at 0.75 to 3 uM pretreated for 4 hrs followed by LPS stimulation measured after 24 hrs by Western blotting analysis; assay type: cell-based; settings: dose 0.75-3 µM
T1 sequence (whole entry): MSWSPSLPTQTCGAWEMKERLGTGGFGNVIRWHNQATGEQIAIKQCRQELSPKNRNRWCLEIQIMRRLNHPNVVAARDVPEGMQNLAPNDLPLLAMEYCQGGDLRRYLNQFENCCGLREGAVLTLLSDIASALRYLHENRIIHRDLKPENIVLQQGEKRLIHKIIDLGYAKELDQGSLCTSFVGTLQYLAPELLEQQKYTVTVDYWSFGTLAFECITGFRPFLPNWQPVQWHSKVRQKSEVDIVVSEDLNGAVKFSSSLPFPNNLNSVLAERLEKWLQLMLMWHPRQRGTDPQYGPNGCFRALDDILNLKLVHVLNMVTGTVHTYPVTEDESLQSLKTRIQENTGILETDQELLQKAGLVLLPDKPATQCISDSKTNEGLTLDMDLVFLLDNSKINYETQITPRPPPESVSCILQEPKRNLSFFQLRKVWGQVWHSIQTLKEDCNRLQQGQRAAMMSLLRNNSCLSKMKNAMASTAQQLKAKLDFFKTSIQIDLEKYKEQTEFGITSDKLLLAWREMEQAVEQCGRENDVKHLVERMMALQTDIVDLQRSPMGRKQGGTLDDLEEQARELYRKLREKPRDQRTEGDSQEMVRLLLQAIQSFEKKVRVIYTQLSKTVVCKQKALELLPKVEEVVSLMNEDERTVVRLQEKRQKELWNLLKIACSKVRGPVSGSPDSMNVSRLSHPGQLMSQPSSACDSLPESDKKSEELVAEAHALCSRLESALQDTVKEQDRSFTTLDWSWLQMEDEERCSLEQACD

C8-D1A [19] = assay: Effect on LPS-induced inflammasome activation in mouse C8D1A cells assessed as reduction in NLRP3 protein level at 0.75 to 3 uM by Western blotting analysis; assay type: functional, cell-based; settings: dose 0.75-3 µM
C8-D1A [20] = assay: Antiinflammatory activity against mouse C8D1A cells assessed as inhibition of LPS-induced ROS production measured after 24 hrs by fluorescent CM-H2DCFDA based flow cytometry; assay type: functional, cell-based; settings: dose 0.75-3 µM, DDE = dose-dependent effect

SMILES: CC[C@H](C)[C@H](NC(=O)[C@@H](NC(=O)[C@@H](NC(=O)[C@H](Cc1ccc(O)cc1)NC(=O)[C@H](Cc1ccc(O)cc1)NC(=O)CNC(=O)[C@H](C)NC(=O)[C@H](CC(C)C)NC(=O)[C@H](CC(=O)O)NC(=O)[C@H](CO)NC(=O)[C@H](CC(C)C)NC(=O)[C@H](Cc1ccc(O)cc1)NC(=O)[C@H](C)NC(=O)[C@H](CC(N)=O)NC(=O)[C@H](CC(C)C)NC(=O)[C@H](CCC(=O)O)NC(=O)[C@H](C)NC(=O)[C@H](CCSC)NC(=O)[C@H](CO)NC(=O)[C@H](CCCCN)NC(=O)[C@H](Cc1ccccc1)NC(=O)[C@H](CO)NC(=O)[C@H](CCC(=O)O)NC(=O)[C@@H]1CCCN1C(=O)[C@H](CCCNC(=N)N)NC(=O)[C@H](CCCCN)NC(=O)[C@@H]1CCCN1C(=O)[C@@H]1CCCN1C(=O)CNC(=O)CNC(=O)[C@@H](N)C(C)C)[C@@H](C)O)C(C)C)C(=O)NCC(=O)N[C@@H](CCCNC(=N)N)C(=O)N1CCC[C@H]1C(=O)N[C@@H](CCCNC(=N)N)C(=O)N[C@@H](Cc1ccccc1)C(=O)O (H-VGGPPKRPESFKSMAELNAYLSDLAGYYTVIGRPRF-OH)
- inhibition (C8D1A): Active
- inhibition (C8-D1A [1]): Active
- inhibition (C8-D1A [2]): Active
- inhibition (C8-D1A [3]): Active
- inhibition (C8-D1A [4]): Active
- inhibition (C8-D1A [5]): Active
- inhibition (C8-D1A [6]): Dde
- inhibition (C8-D1A [7]): Active
- Activity (C8-D1A [8]): Non-Toxic
- inhibition (C8-D1A [9]): Dde
- inhibition (C8-D1A [10]): Active
- inhibition (C8-D1A [11]): Active
- inhibition (C8-D1A [12]): Active
- inhibition (C8-D1A [13]): Active
- inhibition (C8-D1A [14]): Active
- inhibition (C8-D1A [15]): Active
- Activity (C8-D1A [16]): Active
- inhibition [17]: Active
- inhibition [18]: Active
- inhibition (C8-D1A [19]): Active
- inhibition (C8-D1A [20]): Dde
